According to patent US20260137693A1, “CANCER TREATMENTS USING MTA-COOPERATIVE PRMT5 INHIBITORS AND MAT2A INHIBITORS” (AMGEN INC., priority 2022, published 2026):

How the values were obtained:
[1] = test system: Pancreatic cancer cell line BxPC3; assay: Combination of Compound A and Compound B, CellTiter-Glo cell viability, BxPC3 (Example 2); assay type: cell-based; conditions: BxPC3, 6 days, up to 10 μM
Method: (§1) Pancreatic cancer cell line BxPC3 was treated with the combination of Compound A and Compound B for 6 days. Top concentration of Compound A tested was 2 μM with a total of nine 1.9-fold dilutions and DMSO-only control. Top concentration of Compound B tested was 10 μM with a total of five 2-fold dilutions and DMSO-only control. Cell viability was measured by the CellTiter-Glo Luminescence assay. Raw luminescent values were converted to POC with the following equation: POC=100*(Treatment/Vehicle). FIG. 2 represents 1 of the 3 studies conducted. N=2 technical replicates. Mean and standard deviation graphed.

[2] = test system: NSCLC cancer cell line CALU1; assay: Combination of Compound A and Compound B, CellTiter-Glo cell viability, CALU1 (Example 2); assay type: cell-based; conditions: CALU1, 6 days, up to 10 μM
Method: as §1, with “NSCLC cancer” for “Pancreatic cancer”, “line CALU1” for “line BxPC3”, “was 10” for “was 2”, “FIG. 1” for “FIG. 2”, “the 2” for “the 3”

Nc1nc(=O)n(-c2ccccc2Cl)c2nc(C(F)(F)F)ccc12 [Compound B, 4-amino-1-(2-chlorophenyl)-7-(trifluoromethyl)pyrido[2,3-d]pyrimidin-2(1H)-one]
sensitivity of the model to single agent [1]: insensitive
sensitivity of the model to single agent [2]: insensitive
